Several values for one entry are separate records, joined by “and”; a condition that tells them apart may be missing. Equal values may be shown once.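 Assay format: 96-well plates, 48-hour exposure. Abbreviation: GI50, concentration required for 50% inhibition of growth. Definition used: TGI = concentration required for complete inhibition of growth.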

For the experiment, the system named is MDA-MB-468 breast. As to the kind of experiment: NCI anticancer screen, dose series, 48 h.
For the compound `CNC(=O)c1ccccc1Nc1nc(Nc2ccc3c(c2OC)CCC[C@H](N2CCN(CCO)CC2)C3)ncc1Cl`, the GI50 was 1210 nM and 696 nM; the TGI is 3.33 µM and 2.5 µM.

Consider `Cc1ccc(C(=O)NC2CC2)cc1-c1ccc2[nH]ncc2c1`, for which the GI50 was more than 23000 nM and the TGI was more than 25 µM.

On to `CC(C)(C)OC(=O)Nc1ccc2c(c1)C(NC(=O)Nc1cccc(C#N)c1)CC(C)(C)O2` (stereo not drawn), for which the GI50 is 381 nM and the TGI came to 9.9 µM.

In the case of `COc1cc(NCCCCCN=C(N)NC(N)=NC(C)C)c2ncccc2c1`, the GI50 is 90.3 nM and the TGI was 0.594 µM.

Consider `CCCCn1c(=O)c(/C=C/C(=O)/C=C/c2cc3ccccc3n(CCCC)c2=O)cc2ccccc21`, for which the GI50 is 1640 nM and the TGI was 3.76 µM.

Take `O=c1[nH]c(=O)n(C2CC(O)C(CO)O2)cc1C(F)(F)F` (stereo not drawn): the GI50 is more than 85400 nM and the TGI was more than 100 µM.

As to `CS(=O)(=O)N(c1cc(-c2ccc3ncnc(Nc4ccc(F)c(Cl)c4)c3c2)cnc1Cl)S(C)(=O)=O`, the GI50 is 467 nM and the TGI amounted to 2.55 µM.

As for `COc1cc2nccc(Oc3ccc(NC(=O)c4cn(C(C)C)c(=O)n(-c5ccc(F)cc5)c4=O)cc3F)c2cc1OC`, the GI50 was more than 100000 nM and the TGI is more than 100 µM.

For `COC[C@]12CCC(C)(C)C[C@H]1C1=CC[C@@H]3[C@@]4(C)CCCNC(C)(C)[C@@H]4CC[C@@]3(C)[C@]1(C)CC2`, the GI50 was 1530 nM and the TGI turned out to be 3.23 µM.

For the compound `COc1ccc(S(=O)(=O)N(C(C)=O)c2ccccc2/C=C/c2cc[n+]([O-])cc2)cc1`, the GI50 was 461 nM and the TGI is more than 10 µM.

With `CC/C(=C/c1ccc(OC)cc1OC)[N+](=O)[O-]`, the GI50 is 2020 nM and the TGI worked out at 4.3 µM.

Regarding `COc1cc(C(=O)c2cocc2C(=O)c2ccc3c(c2)OCO3)cc(OC)c1OC`, the GI50 was 4050 nM and the TGI was more than 100 µM.

Take `COc1ccc2nc3cc(Cl)ccc3c(Nc3cc(CN4CCCC4)c(O)c(CN4CCCC4)c3)c2n1`: the GI50 was 1330 nM and the TGI turned out to be 2.76 µM.

Turning to `c1ccc2c(c1)cc1ccc3cccc4ccc2c1c34`, the GI50 is 157 nM and the TGI was 0.312 µM.

Turning to `CC(C)c1ccc(NC(=O)Cc2ccc(Nc3ncnc4cc(-c5cnn(CCN(C)C)c5)ccc34)cc2)cc1`, the GI50 is 1340 nM and the TGI amounted to 3.72 µM.

Turning to `C[N+](C)=c1ccc2nc3c(cc(NCCCNc4cc5oc6cc(=[N+](C)C)ccc-6nc5c5ccccc45)c4ccccc43)oc-2c1`, the GI50 was 193 nM and the TGI stood at 1.35 µM.

As to `CCn1c(-c2nonc2N)nc2c(N3CCCC3)nccc21`, the GI50 is 8920 nM and the TGI is more than 25 µM.

On to `COC(=O)N[C@H]1CCc2c(Cl)c(OC)c(OC)c(OC)c2-c2ccc(SC)c(=O)cc21`, for which the GI50 was less than 10 nM and the TGI amounted to 23.1 µM.

`CC[C@H](C)[C@H](NC(=O)c1cccn1C)C(=O)N(C)[C@H](C[C@@H](OC(C)=O)c1nc(C(=O)N[C@@H](Cc2ccccc2)C[C@H](C)C(=O)OC)cs1)C(C)C`: the GI50 is 68.3 nM and the TGI turned out to be 10.8 µM.

As for `O=C1c2cc3c(cc2-c2c1c1ccc(Cl)cc1c(=O)n2CCCn1ccnc1)OCO3`, the GI50 was less than 10 nM and the TGI came to 0.0144 µM.

Consider `CCN(CC)CCCCNc1c2ccc(Cl)cc2nc2ccc(OC)cc12`, for which the GI50 is 317 nM and the TGI was determined as 1.83 µM.

`C=C(C)[C@@H]1CC[C@]2(C(=O)NS(=O)(=O)c3ccccc3)CC[C@]3(C)[C@H](CC[C@@H]4[C@@]5(C)CC[C@H](OC(=O)NS(=O)(=O)c6ccccc6)C(C)(C)[C@@H]5CC[C@]43C)[C@@H]12`: the GI50 was 2220 nM and the TGI came to 10.2 µM.

`Cc1cc(O)c(-c2ccc([C@@H](C)CN(C)C)cc2)c2c1[nH]c(=O)c1sccc12`: the GI50 was 514 nM and the TGI stood at 3.94 µM.

For `O=P(O)(O)OCC1OC(n2cnc3c(NCc4ccccc4)ncnc32)C(O)C1O` (stereo not drawn), the GI50 was 925 nM and the TGI stood at 4.12 µM.

As to `O=C(Nc1cccc(C(F)(F)F)c1)Oc1ccc(Cl)c2cccnc12`, the GI50 was 1790 nM and the TGI was determined as 4.28 µM.

Consider `COc1ccc2[nH]c(C(=O)OCc3ccc4c(Cl)cc(Cl)c(O)c4n3)cc2c1`, for which the GI50 was 1360 nM and the TGI was 2.77 µM.

Take `O=C(/C=C/C12c3ccccc3C(c3ccccc31)C1C(=O)NC(=O)C12)c1ccccc1` (stereo not drawn): the GI50 was 1720 nM and the TGI is 3.68 µM.

`CNC(=O)c1cncc(/C=C/c2ccccc2Cl)c1`: the GI50 is 9170 nM and the TGI is more than 25 µM.

With `C=C1CCC2C3(C)COC(c4ccccc4Cl)OC3CCC2(C)C1/C=C/C1=CCOC1=O` (stereo not drawn), the GI50 was 4960 nM and the TGI was more than 100 µM.

Regarding `ClC(Cl)c1nc(-c2cccs2)n2nc(-c3ccccc3)cc2n1`, the GI50 is 224 nM and the TGI amounted to 0.688 µM.

As for `Nc1cccc2c1C(=O)c1cccc(NC(=O)c3ccccc3)c1C2=O`, the GI50 was 577 nM and the TGI amounted to 7.03 µM.

Consider `COC(=O)[C@H](Cc1cn(C)cn1)NC(=O)[C@H](Cc1ccccc1)NC(=O)Nc1cc(C(F)(F)F)cc(C(F)(F)F)c1`, for which the GI50 was 4400 nM and 4230 nM; the TGI was found to be 17.7 µM.

Take `CCn1c2ccccc2c2cc(C(=O)c3ccc(C)c4ccccc34)ccc21`: the GI50 is 291 nM and the TGI is 0.918 µM.

Turning to `CC(C)(C)OC(=O)N[C@@H](Cc1ccccc1)C(=O)N(Cc1ccccc1)C1(C(=O)NCc2ccccc2)CCN(Cc2ccccc2)CC1`, the GI50 is 1620 nM and the TGI was found to be 5.91 µM.

Values taken from PubChem BioAssay (NCI).
